Results: patent publication US10028966B2 (Avalyn Pharma Inc., priority 2014, dated 2018)
Read-outs that look alike come from different tables or passages of the source.

Experiments:
[1] = Stability assessment of pirfenidone formulations at 25°C/60% RH and 40°C/75% RH; assay type: physicochemical; conditions: for Measured Pirfenidone / mOsmol/kg / pH: time zero
[2] = cited from earlier work; for Cmax: read-out: oral Cmax in IPF patients
[3] = 25° C./60% RH, target 1 mg/mL, 5 mM phosphate buffer pH 6.5 plus 1% (v/v) EtOH, 2% (v/v) PG
[4] = 25° C./60% RH, target 1 mg/mL, 5 mM phosphate buffer pH 6.5 plus 8% (v/v) EtOH, 16% (v/v) PG
[5] = 25° C./60% RH, target 15 mg/mL, 5 mM phosphate buffer pH 6.5 plus 1% (v/v) EtOH, 2% (v/v) PG
[6] = 25° C./60% RH, target 23 mg/mL, 5 mM phosphate buffer pH 6.5 plus 4% (v/v) EtOH, 8% (v/v) PG
[7] = 25° C./60% RH, target 30 mg/mL, 5 mM phosphate buffer pH 6.5 plus 6% (v/v) EtOH, 12% (v/v) PG
[8] = 25° C./60% RH, target 38 mg/mL, 5 mM phosphate buffer pH 6.5 plus 8% (v/v) EtOH, 16% (v/v) PG
[9] = 40° C./75% RH, target 1 mg/mL, 5 mM phosphate buffer pH 6.5 plus 1% (v/v) EtOH, 2% (v/v) PG
[10] = 40° C./75% RH, target 1 mg/mL, 5 mM phosphate buffer pH 6.5 plus 8% (v/v) EtOH, 16% (v/v) PG
[11] = 40° C./75% RH, target 15 mg/mL, 5 mM phosphate buffer pH 6.5 plus 1% (v/v) EtOH, 2% (v/v) PG
[12] = 40° C./75% RH, target 23 mg/mL, 5 mM phosphate buffer pH 6.5 plus 4% (v/v) EtOH, 8% (v/v) PG
[13] = 40° C./75% RH, target 30 mg/mL, 5 mM phosphate buffer pH 6.5 plus 6% (v/v) EtOH, 12% (v/v) PG
[14] = 40° C./75% RH, target 38 mg/mL, 5 mM phosphate buffer pH 6.5 plus 8% (v/v) EtOH, 16% (v/v) PG
[15] = target 1 mg/mL, 5 mM phosphate buffer pH 6.5 plus 1% (v/v) EtOH, 2% (v/v) PG
[16] = target 1 mg/mL, 5 mM phosphate buffer pH 6.5 plus 8% (v/v) EtOH, 16% (v/v) PG
[17] = target 15 mg/mL, 5 mM phosphate buffer pH 6.5 plus 1% (v/v) EtOH, 2% (v/v) PG
[18] = target 23 mg/mL, 5 mM phosphate buffer pH 6.5 plus 4% (v/v) EtOH, 8% (v/v) PG
[19] = target 30 mg/mL, 5 mM phosphate buffer pH 6.5 plus 6% (v/v) EtOH, 12% (v/v) PG
[20] = target 38 mg/mL, 5 mM phosphate buffer pH 6.5 plus 8% (v/v) EtOH, 16% (v/v) PG

## Cc1ccc(=O)n(-c2ccccc2)c1 [pirfenidone, 5-methyl-1-phenyl-2-(1H)-pyridone]
[1]; [3]
  Pirfenidone at Time = 0: 1.0 mg/mL
  Pirfenidone at Time = 1 month: 1.0 mg/mL
  Pirfenidone at Time = 3 month: 1.0 mg/mL
  Pirfenidone at Time = 6 month: 1.0 mg/mL
[1]; [4]
  Pirfenidone at Time = 0: 1.0 mg/mL
  Pirfenidone at Time = 1 month: 1.0 mg/mL
  Pirfenidone at Time = 3 month: 1.0 mg/mL
  Pirfenidone at Time = 6 month: 1.0 mg/mL
[1]; [5]
  Pirfenidone at Time = 0: 16.1 mg/mL
  Pirfenidone at Time = 1 month: 15.1 mg/mL
  Pirfenidone at Time = 3 month: 14.9 mg/mL
  Pirfenidone at Time = 6 month: 15.4 mg/mL
[1]; [6]
  Pirfenidone at Time = 0: 24.1 mg/mL
  Pirfenidone at Time = 1 month: 22.1 mg/mL
  Pirfenidone at Time = 3 month: 22.3 mg/mL
  Pirfenidone at Time = 6 month: 23.2 mg/mL
[1]; [7]
  Pirfenidone at Time = 0: 30.3 mg/mL
  Pirfenidone at Time = 1 month: 30.1 mg/mL
  Pirfenidone at Time = 3 month: 29.6 mg/mL
  Pirfenidone at Time = 6 month: 31.0 mg/mL
[1]; [8]
  Pirfenidone at Time = 0: 38.9 mg/mL
  Pirfenidone at Time = 1 month: 38.3 mg/mL
  Pirfenidone at Time = 3 month: 38.0 mg/mL
  Pirfenidone at Time = 6 month: 39.2 mg/mL
[1]; [9]
  Pirfenidone at Time = 0: 1.0 mg/mL
  Pirfenidone at Time = 1 month: 1.0 mg/mL
  Pirfenidone at Time = 3 month: 1.0 mg/mL
  Pirfenidone at Time = 6 month: 1.0 mg/mL
[1]; [10]
  Pirfenidone at Time = 0: 1.0 mg/mL
  Pirfenidone at Time = 1 month: 1.0 mg/mL
  Pirfenidone at Time = 3 month: 1.0 mg/mL
  Pirfenidone at Time = 6 month: 1.0 mg/mL
[1]; [11]
  Pirfenidone at Time = 0: 16.1 mg/mL
  Pirfenidone at Time = 1 month: 15.1 mg/mL
  Pirfenidone at Time = 3 month: 14.8 mg/mL
  Pirfenidone at Time = 6 month: 15.5 mg/mL
[1]; [12]
  Pirfenidone at Time = 0: 24.1 mg/mL
  Pirfenidone at Time = 1 month: 22.4 mg/mL
  Pirfenidone at Time = 3 month: 22.1 mg/mL
  Pirfenidone at Time = 6 month: 23.3 mg/mL
[1]; [13]
  Pirfenidone at Time = 0: 30.3 mg/mL
  Pirfenidone at Time = 1 month: 30.3 mg/mL
  Pirfenidone at Time = 3 month: 30.0 mg/mL
  Pirfenidone at Time = 6 month: 31.1 mg/mL
[1]; [14]
  Pirfenidone at Time = 0: 38.9 mg/mL
  Pirfenidone at Time = 1 month: 38.4 mg/mL
  Pirfenidone at Time = 3 month: 38.0 mg/mL
  Pirfenidone at Time = 6 month: 37.9 mg/mL
[1]; [15]
  Measured Pirfenidone: 1.0 mg/mL
  mOsmol/kg: 452 mOsmol/kg
  pH: 6.69
[1]; [16]
  Measured Pirfenidone: 1.0 mg/mL
  mOsmol/kg: 3590 mOsmol/kg
  pH: 6.98
[1]; [17]
  Measured Pirfenidone: 16.1 mg/mL
  mOsmol/kg: 512 mOsmol/kg
  pH: 6.65
[1]; [18]
  Measured Pirfenidone: 24.1 mg/mL
  pH: 6.78
[1]; [19]
  Measured Pirfenidone: 30.3 mg/mL
  mOsmol/kg: 2863 mOsmol/kg
  pH: 6.90
[1]; [20]
  Measured Pirfenidone: 38.9 mg/mL
  mOsmol/kg: 3750 mOsmol/kg
  pH: 7.04
[2]; 801 mg oral pirfenidone, human-measured value
  time plasma level at or greater than 5 mcg/mL: 4 h
[2]; fasting-state
  oral Cmax in IPF patients: about 15.7 mcg/mL
  Cmax: ~84 µM
[2]; oral, fed-state
  increase in Tmax: seven-fold
  reduction in Cmax: ~50%
  reduction in overall exposure: 10-15%
[2]; recommended fed-state
  oral Cmax in IPF patients: about 7.9 mcg/mL
  Cmax: ~42 µM
